Test results from publication PMC3692431, “Anticonvulsant Activity of B2, an Adenosine Analog, on Chemical Convulsant-Induced Seizures” (PLoS ONE, 2013).

System: 4-AP-induced seizures
Assay: 4-AP-induced seizures in mice
Format: in vivo
Conditions: 4-AP 13 mg/kg; for latency of seizure onset prolonged by: vs control
Protocol: KA was dissolved in saline and the pH was adjusted to neutrality. The final concentration of KA was 0.7 µg/µl, and the convulsant dose was 1 µl (i.c.v.). […] The selective adenosine receptor antagonist DPCPX or SCH58261 was administered (i.p.) 5 min before administration of B2 or vehicle.
Mice were injected with B2 (1.25, 5, 20 mg/kg), carbamazepine (80 mg/kg) or vehicle 20 min before administration of strychnine (1.5 mg/kg) or 4-AP (13 mg/kg). […] The time of latency to seizure onset and mortality rate were recorded.

COc1cc(CNc2ncnc3c2ncn3[C@@H]2O[C@H](CO)[C@@H](O)[C@H]2O)ccc1O [B2, N^6-(3-methoxyl-4-hydroxybenzyl) adenine riboside]
latency of seizure onset prolonged by (B2 1.25 mg/kg i.p.): 25%
latency of seizure onset prolonged by (B2 5 mg/kg i.p.): 135%
latency of seizure onset prolonged by (B2 20 mg/kg i.p.): 96%
effect on mortality rate (B2 1.25, 5, 20 mg/kg i.p., control 100%): did not have a significant effect
